Experimental data as given in the OligoGym collection.
HELM strings list units from the 5' end as sugar, base in round brackets, then linkage (d deoxyribose, r ribose, m 2'-O-methyl, p phosphodiester). Strings are as the collection lists them; they lack the last nucleoside at the 3' end of the tested compound. [moe] = 2'-O-(2-methoxyethyl) (MOE); [sp] = phosphorothioate linkage; [m5C] = 5-methylcytosine

Molecular target: GFAP
Test: mouse, dose not given
Settings: ASO

| Substance | 3 h FOB score [score 0-7] |
| --- | --- |
| RNA1{[moe](T)[sp].[moe](T)p.[moe](T)p.[moe](G)p.[moe](T)[sp].d([m5C])[sp].d(T)[sp].d(T)[sp].d(T)[sp].d(A)[sp].d(T)[sp].d(T)[sp].d(T)[sp].d(T)[sp].d(T)[sp].[moe]([m5C])p.[moe]([m5C])p.[moe](T)[sp].[moe]([m5C])}$$$$ (last 3' nucleoside missing) | 0 |
| RNA1{[moe](T)[sp].[moe](T)p.[moe](T)p.[moe](G)p.[moe](T)p.[moe]([m5C])p.d(T)[sp].d(T)[sp].d(T)[sp].d(A)[sp].d(T)[sp].d(T)[sp].d(T)[sp].d(T)[sp].d(T)[sp].d([m5C])[sp].[moe]([m5C])p.[moe](T)[sp].[moe]([m5C])}$$$$ (last 3' nucleoside missing) | 0 |
| RNA1{[moe](T)[sp].[moe](T)p.[moe](T)p.[moe](G)p.d(G)[sp].d([m5C])[sp].d(A)[sp].d(G)[sp].d(T)[sp].d(A)[sp].d(T)[sp].d(T)[sp].d(A)[sp].d([m5C])[sp].[moe]([m5C])p.[moe](T)p.[moe]([m5C])p.[moe](T)[sp].[moe](A)}$$$$ (last 3' nucleoside missing) | 1 |
| RNA1{[moe](T)[sp].[moe](T)p.[moe](T)p.[moe](G)p.d(T)[sp].d([m5C])[sp].d(T)[sp].d(T)[sp].d(T)[sp].d(A)[sp].d(T)[sp].d(T)[sp].d(T)[sp].d(T)[sp].[moe](T)p.[moe]([m5C])p.[moe]([m5C])p.[moe](T)[sp].[moe]([m5C])}$$$$ (last 3' nucleoside missing) | 1 |
| RNA1{[moe](T)[sp].[moe](T)p.[moe](T)p.[moe](T)p.[moe](G)[sp].d(T)[sp].d(G)[sp].d(T)[sp].d(G)[sp].d(T)[sp].d(G)[sp].d(A)[sp].d(G)[sp].d(T)[sp].d(A)[sp].[moe](A)p.[moe](G)p.[moe](A)[sp].[moe](A)}$$$$ (last 3' nucleoside missing) | 7 |
| RNA1{[moe](T)[sp].[moe](T)p.[moe](T)p.[moe](T)p.d(G)[sp].d(A)[sp].d(G)[sp].d(A)[sp].d(T)[sp].d(A)[sp].d(T)[sp].d([m5C])[sp].d(T)[sp].d(T)[sp].[moe](G)p.[moe](T)p.[moe](G)p.[moe](A)[sp].[moe]([m5C])}$$$$ (last 3' nucleoside missing) | 3 |
| RNA1{[moe](T)[sp].[moe](T)p.[moe](T)p.[moe]([m5C])p.[moe](T)[sp].d([m5C])[sp].d(T)[sp].d([m5C])[sp].d([m5C])[sp].d(T)[sp].d(G)[sp].d(T)[sp].d(T)[sp].d(T)[sp].d([m5C])[sp].[moe](A)p.[moe](G)p.[moe]([m5C])[sp].[moe](A)}$$$$ (last 3' nucleoside missing) | 3 |
| RNA1{[moe](T)[sp].[moe]([m5C])p.[moe](A)p.[moe](G)p.[moe](T)p.d(T)[sp].d(T)[sp].d(T)[sp].d([m5C])[sp].d([m5C])[sp].d(T)[sp].d([m5C])[sp].d([m5C])[sp].d(A)[sp].d(G)[sp].[moe]([m5C])p.[moe](A)p.[moe](G)[sp].[moe]([m5C])}$$$$ (last 3' nucleoside missing) | 2 |
| RNA1{[moe](T)[sp].[moe]([m5C])p.[moe](A)p.[moe](G)p.[moe]([m5C])[sp].d([m5C])[sp].d(T)[sp].d(G)[sp].d(G)[sp].d(T)[sp].d(T)[sp].d(A)[sp].d(G)[sp].[moe]([m5C])p.[moe]([m5C])p.[moe](T)[sp].[moe](T)}$$$$ (last 3' nucleoside missing) | 3 |
| RNA1{[moe](T)[sp].[moe]([m5C])p.[moe](A)p.[moe](G)p.[moe]([m5C])p.[moe]([m5C])p.d(T)[sp].d(G)[sp].d(G)[sp].d(T)[sp].d(T)[sp].d(A)[sp].d(G)[sp].d([m5C])[sp].d([m5C])[sp].d(T)[sp].[moe](T)p.[moe](T)[sp].[moe]([m5C])}$$$$ (last 3' nucleoside missing) | 4 |
| RNA1{[moe](T)[sp].[moe]([m5C])p.[moe](A)p.[moe](G)p.[moe]([m5C])p.d([m5C])[sp].d(T)[sp].d(G)[sp].d(G)[sp].d(T)[sp].d(T)[sp].d(A)[sp].d(G)[sp].d([m5C])[sp].d([m5C])[sp].[moe](T)p.[moe](T)p.[moe](T)[sp].[moe]([m5C])}$$$$ (last 3' nucleoside missing) | 4 |
| RNA1{[moe](T)[sp].[moe]([m5C])p.[moe](A)p.[moe](G)p.d([m5C])[sp].d([m5C])[sp].d(T)[sp].d(G)[sp].d(G)[sp].d(T)[sp].d(T)[sp].d(A)[sp].d(G)[sp].d([m5C])[sp].[moe]([m5C])p.[moe](T)p.[moe](T)p.[moe](T)[sp].[moe]([m5C])}$$$$ (last 3' nucleoside missing) | 4 |
| RNA1{[moe](T)[sp].[moe]([m5C])p.[moe](A)p.[moe]([m5C])p.[moe](A)[sp].d(T)[sp].d(T)[sp].d([m5C])[sp].d(A)[sp].d([m5C])[sp].d(T)[sp].d(A)[sp].d(A)[sp].[moe](T)p.[moe](A)p.[moe](T)[sp].[moe](T)}$$$$ (last 3' nucleoside missing) | 0 |
| RNA1{[moe](T)[sp].[moe]([m5C])p.[moe](A)p.[moe]([m5C])p.[moe](A)[sp].d([m5C])[sp].d(T)[sp].d([m5C])[sp].d([m5C])[sp].d(T)[sp].d([m5C])[sp].d(A)[sp].d(G)[sp].d([m5C])[sp].d(T)[sp].[moe](A)p.[moe](G)p.[moe](G)[sp].[moe](T)}$$$$ (last 3' nucleoside missing) | 1 |
| RNA1{[moe](T)[sp].[moe]([m5C])p.[moe](A)p.[moe]([m5C])p.[moe](A)p.[moe](T)p.d(T)[sp].d([m5C])[sp].d(A)[sp].d([m5C])[sp].d(T)[sp].d(A)[sp].d(A)[sp].d(T)[sp].d(A)[sp].d(T)[sp].[moe](T)p.[moe](T)[sp].[moe](A)}$$$$ (last 3' nucleoside missing) | 0 |
| RNA1{[moe](T)[sp].[moe]([m5C])p.[moe](A)p.[moe]([m5C])p.[moe](A)p.d(T)[sp].d(T)[sp].d([m5C])[sp].d(A)[sp].d([m5C])[sp].d(T)[sp].d(A)[sp].d(A)[sp].d(T)[sp].d(A)[sp].[moe](T)p.[moe](T)p.[moe](T)[sp].[moe](A)}$$$$ (last 3' nucleoside missing) | 0 |
| RNA1{[moe](T)[sp].[moe]([m5C])p.[moe](A)p.[moe]([m5C])p.d(A)[sp].d(T)[sp].d(T)[sp].d([m5C])[sp].d(A)[sp].d([m5C])[sp].d(T)[sp].d(A)[sp].d(A)[sp].d(T)[sp].[moe](A)p.[moe](T)p.[moe](T)p.[moe](T)[sp].[moe](A)}$$$$ (last 3' nucleoside missing) | 0 |
| RNA1{[moe](T)[sp].[moe]([m5C])p.[moe](T)p.[moe](G)p.[moe](T)[sp].d(G)[sp].d([m5C])[sp].d(T)[sp].d(T)[sp].d(T)[sp].d(A)[sp].d(G)[sp].d(T)[sp].d(G)[sp].d(A)[sp].[moe]([m5C])p.[moe]([m5C])p.[moe](T)[sp].[moe](G)}$$$$ (last 3' nucleoside missing) | 4 |
| RNA1{[moe](T)[sp].[moe]([m5C])p.[moe](T)p.[moe](G)p.[moe]([m5C])[sp].d(T)[sp].d([m5C])[sp].d(G)[sp].d(G)[sp].d(G)[sp].d([m5C])[sp].d([m5C])[sp].d([m5C])[sp].d([m5C])[sp].d(T)[sp].[moe]([m5C])p.[moe](A)p.[moe](T)[sp].[moe](G)}$$$$ (last 3' nucleoside missing) | 2 |
| RNA1{[moe](T)[sp].[moe]([m5C])p.[moe](T)p.[moe](G)p.[moe]([m5C])[sp].d([m5C])[sp].d(A)[sp].d(T)[sp].d(T)[sp].d(T)[sp].d(A)[sp].d(T)[sp].d([m5C])[sp].[moe](T)p.[moe](G)p.[moe](T)[sp].[moe](G)}$$$$ (last 3' nucleoside missing) | 3 |
| RNA1{[moe](T)[sp].[moe]([m5C])p.[moe](T)p.[moe](G)p.[moe]([m5C])[sp].d([m5C])[sp].d(A)[sp].d(T)[sp].d(T)[sp].d(T)[sp].d(A)[sp].d(T)[sp].d([m5C])[sp].d(T)[sp].d(G)[sp].[moe](T)p.[moe](G)p.[moe]([m5C])[sp].[moe](T)}$$$$ (last 3' nucleoside missing) | 0 |
| RNA1{[moe](T)[sp].[moe]([m5C])p.[moe](T)p.[moe](G)p.[moe]([m5C])p.d([m5C])[sp].d(A)[sp].d(T)[sp].d(T)[sp].d(T)[sp].d(A)[sp].d(T)[sp].d([m5C])[sp].d(T)[sp].d(G)[sp].[moe](T)p.[moe](G)p.[moe]([m5C])[sp].[moe](T)}$$$$ (last 3' nucleoside missing) | 1 |
| RNA1{[moe](T)[sp].[moe]([m5C])p.[moe](T)p.[moe](T)p.[moe](T)[sp].d(A)[sp].d(T)[sp].d(T)[sp].d(T)[sp].d(T)[sp].d(T)[sp].d([m5C])[sp].d([m5C])[sp].[moe](T)p.[moe]([m5C])p.[moe](A)[sp].[moe](G)}$$$$ (last 3' nucleoside missing) | 1 |
| RNA1{[moe](T)[sp].[moe]([m5C])p.[moe](T)p.[moe](T)p.[moe](T)[sp].d(A)[sp].d(T)[sp].d(T)[sp].d(T)[sp].d(T)[sp].d(T)[sp].d([m5C])[sp].d([m5C])[sp].d(T)[sp].d([m5C])[sp].[moe](A)p.[moe](G)p.[moe]([m5C])[sp].[moe](G)}$$$$ (last 3' nucleoside missing) | 1 |
| RNA1{[moe](T)[sp].[moe]([m5C])p.[moe](T)p.[moe](T)p.[moe](T)p.[moe](A)p.d(T)[sp].d(T)[sp].d(T)[sp].d(T)[sp].d(T)[sp].d([m5C])[sp].d([m5C])[sp].d(T)[sp].d([m5C])[sp].d(A)[sp].[moe](G)p.[moe]([m5C])[sp].[moe](G)}$$$$ (last 3' nucleoside missing) | 0 |
| RNA1{[moe](T)[sp].[moe]([m5C])p.[moe](T)p.[moe](T)p.d(T)[sp].d(A)[sp].d(T)[sp].d(T)[sp].d(T)[sp].d(T)[sp].d(T)[sp].d([m5C])[sp].d([m5C])[sp].d(T)[sp].[moe]([m5C])p.[moe](A)p.[moe](G)p.[moe]([m5C])[sp].[moe](G)}$$$$ (last 3' nucleoside missing) | 1 |
